Assay [1] concerns the target T1, mouse DP receptor (Mus musculus, UniProt P70263).
T1 construct: A full length cDNA for the mouse DP receptor was obtained by PCR; expressed in transfected cells
T1 sequence (P70263 1-357): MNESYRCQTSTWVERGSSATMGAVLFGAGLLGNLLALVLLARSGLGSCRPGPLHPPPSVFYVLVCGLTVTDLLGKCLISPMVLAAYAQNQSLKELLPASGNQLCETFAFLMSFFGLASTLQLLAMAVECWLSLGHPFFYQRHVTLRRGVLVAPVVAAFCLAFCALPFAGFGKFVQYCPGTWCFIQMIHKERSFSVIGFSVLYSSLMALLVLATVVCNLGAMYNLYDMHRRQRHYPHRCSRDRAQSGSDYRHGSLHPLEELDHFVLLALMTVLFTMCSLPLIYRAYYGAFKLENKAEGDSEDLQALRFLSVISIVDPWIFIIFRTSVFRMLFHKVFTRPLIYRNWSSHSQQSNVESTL
Description: SPA cAMP assay, mouse DP cell line. It counts as cell-based. Particulars: 15 minutes stimulation, FIG. 7, read-out: EC50, cAMP accumulation. In general terms: cAMP levels reflect the balance of adenylyl cyclase and phosphodiesterase activity.

In assay [2] the test system is recombinant guinea pig DP receptor. Description: SPA cAMP assay, guinea pig DP cell line. Format: cell-based, guinea pig (Cavia porcellus). The following applies: 15 minutes stimulation, FIG. 7, read-out: EC50, cAMP accumulation. The protocol: (§1) An additional functional characterization of the newly cloned guinea pig DP receptor used the natural signaling pathway for DP, the stimulation of cAMP production by adenylate cyclase. Transfected or non-transfected cells were plated at 40,000 cells per well of a 96 well plate. After overnight incubation at 37° C., medium was replaced and cells were stimulated with defined concentrations of PGD2 for 15 minutes. The accumulation of cAMP was measured in the stimulated cells using the cAMP SPA Direct Screening Assay System (Amersham) according to procedures specified by the manufacturer.

Assay [3] addresses T1, mouse DP receptor. Kind of assay: Intracellular calcium assay (FLIPR), mouse DP receptor in HEK293-Gα16 cells. The following applies: mouse DP-expressing HEK293-Gα16 cells, FIG. 6, read-out: EC50, intracellular calcium mobilization. It counts as cell-based. The protocol:
The pEAK10-gpDP and pEAK10-mDP vectors were transfected into the HEK293-Gα16 cell line using Lipofectamine 2000 (Gibco) as described by the manufacturer. Transfected cells were cultured under selection with 1 ug/ml puromycin and 250 ug/ml zeocin for 5 weeks. Expression of the DP receptor was monitored in the transfected cell population by measuring the release of intracellular calcium in response to PGD2 stimulation.
For functional characterization the newly cloned guinea pig DP receptor was stably transfected into HEK293-Gα16 cells and for comparison an equivalent cell line was generated with the mouse DP receptor. Both DP receptor-expressing cell lines, as well as the parental cell line not expressing any transfected DP receptor, were evaluated in a second messenger assay using the force coupling of the receptor to Gα16 to elicit a calcium response. Intracellular calcium measurements were performed using non-transfected HEK293-Gα16 cells or cells transfected with either the pEAK10-gpDP or the pEAK10-mDP expression vectors. Transfected and non-transfected cells were plated in 384 well plates at 10,000 cells per well. Cells were washed three times with calcium assay buffer. […] Intracellular calcium was measured following PGD2 or buffer stimulation of […] loaded cells using a FLIPR instrument (Molecular Devices Corp.).

The subject of assay [4] is parental HEK293-Gα16 cell line. Description: Intracellular calcium assay (FLIPR), parental cell line without transfected DP receptor. It counts as cell-based. The following applies: parental HEK293-Gα16 cells, no transfected DP receptor. The source says:
The cDNA encoding human Gα16 was cloned as described (Amatruda et al., 1991). Briefly, total RNA from HL-60 human promyelocytic leukemia cells was isolated and used as a template for PCR-mediated synthesis of cDNA encoding Gα16. The resulting PCR product was cloned into the expression vector pHook-3 (Invitrogen), which also coexpresses a single-chain antibody (sFv) to allow convenient enrichment of transfected cells using a panning protocol with hapten-coated magnetobeads (Chesnut et al., 1996). HEK293 cells were transfected with the constructed plasmid (pGα16), selected with Zeocin and positive clones enriched using magnetobeads according to protocols supplied by the vendor. […]
For functional characterization the newly cloned guinea pig DP receptor was stably transfected into HEK293-Gα16 cells and for comparison an equivalent cell line was generated with the mouse DP receptor. Both DP receptor-expressing cell lines, as well as the parental cell line not expressing any transfected DP receptor, were evaluated in a second messenger assay using the force coupling of the receptor to Gα16 to elicit a calcium response. […] Intracellular calcium was measured following PGD2 or buffer stimulation of […] loaded cells using a FLIPR instrument (Molecular Devices Corp.).
(In general: Calcium flux is commonly read through the fluorescence of an indicator in the cells.)

Assay [5] relates to parental HEK293-Gα16 cell line. Kind of assay: SPA cAMP assay, parental cell line. Particulars: parental HEK293-Gα16 cells, 15 minutes stimulation. Format: cell-based. The method, then:
as §1

In assay [6] the test system is recombinant guinea pig DP receptor. Kind of assay: Intracellular calcium assay (FLIPR), guinea pig DP receptor in HEK293-Gα16 cells. Format: cell-based, guinea pig (Cavia porcellus). Particulars: guinea pig DP-expressing HEK293-Gα16 cells, FIG. 6, read-out: EC50, intracellular calcium mobilization.
Description: For functional characterization the newly cloned guinea pig DP receptor was stably transfected into HEK293-Gα16 cells and for comparison an equivalent cell line was generated with the mouse DP receptor. Both DP receptor-expressing cell lines, as well as the parental cell line not expressing any transfected DP receptor, were evaluated in a second messenger assay using the force coupling of the receptor to Gα16 to elicit a calcium response. Intracellular calcium measurements were performed using non-transfected HEK293-Gα16 cells or cells transfected with either the pEAK10-gpDP or the pEAK10-mDP expression vectors. Transfected and non-transfected cells were plated in 384 well plates at 10,000 cells per well. Cells were washed three times with calcium assay buffer. Cells were then incubated with 4 μM of the calcium loading dye Fura-4/AM (Molecular Probes) at 37° C. for x min. Unincorporated fura-4/AM was removed by three further washes with calcium assay buffer. Intracellular calcium was measured following PGD2 or buffer stimulation of Fura-4/AM loaded cells using a FLIPR instrument (Molecular Devices Corp.).

The term EC50 denotes the concentration that produces a half-maximal response.

Take `CCCCC[C@H](O)/C=C/[C@H]1C(=O)C[C@H](O)[C@@H]1C/C=C\CCCC(=O)O` [PGD2, Prostaglandin D2]: the EC50 is 0.5 nM at mouse DP receptor [1], 0.8 nM in assay [2], 18 nM at mouse DP receptor [3] and 1.4 nM in assay [6]. The “PGD2 concentration at which a calcium response is seen” value in assay [4] is on record as “above 10 μM”. Further, the “intracellular cAMP response to stimulation” value in assay [5] is recorded as “did not show an increase in intracellular cAMP”.

Source of the values: patent US7488799B2, “Prostaglandin receptor protein” (Aventis Pharmaceuticals Inc., priority 2003, dated 2009).
